Source: US10736908B2, “Antiviral aryl-amide phosphodiamide compounds” (Merck Sharp & Dohme Corp., priority 2016, dated 2020)

Test system: not listed separately
Test: Prodrug stability assay in bio-relevant media (FaSSIF with Pancreatin)
Format: in vitro ADME
Settings: HPLC peak area of prodrug at 5 h divided by that at 0 h; 0.5 mg/mL Pancreatin in FaSSIF, 37° C.
Experimental: Prodrug Stability Assay in Bio-Relevant Media
The following assay was employed to evaluate the stability of the prodrugs in simulated gastrointestinal tract conditions. Preparation of fasted state simulated intestinal fluid (FaSSIF) using Phares SIF Powder was carried out according to protocols from Phare Drug Delivery AG (Baselland, Switzerland). For sample preparation, 10 μL stock solutions (10 mM) of prodrug substance in DMSO was added to 990 μL of 0.5 mg/mL Pancreatin solution (Fisher CAS #8049-47˜6) in FaSSIF. Two samples were prepared for each compound. If the sample was a clear solution, it was directly analyzed by HPLC. If the sample was not clear, the sample was diluted with 100% MeCN, maintained at 37° C. and observed 5 h later. If the sample was clear, HPLC analysis was directly performed. If the sample was still not clear, the sample was diluted with 100% ACN and assayed by HPLC. All the samples were vortexed for 3 min and observed before injection. For the diluted samples, the area is multiplied by a dilution factor when the data is analyzed. The analysis was carried out with an Agilent 1100 series HPLC with autosampler. The column was a Poroshell 120 EC-C18, 4.6×50 mm, 2.7 μm. The flow rate was 1.8 mL/min, and the injection volume was 5 or 10 μL. UV detection was in the range 210-400 nm. The mobile phase consisted of solvent A (water plus 10 mM tetrabutylammonium bromide) and solvent B (acetonitrile) with a gradient of: 90% solvent A at 0 min, changing to 95% solvent B over 6 min, maintaining for 1.5 min, then reverting to 90% solvent A over 1.6 min. The HPLC peak area of the prodrug at 5 h was divided by the HPLC peak area of the prodrug at 0 h, to generate the % claimed parent ratio, which is summarized in Table 2 for gastrointestinal (GI) Tract stability.

GI Tract stability | Compound
99.9% | CCCCCOC(=O)C(C)(C)NP(=O)(CO[C@H](C)Cn1cnc2c(N)ncnc21)NC(=O)c1ccc(Cl)cc1 (single isomer, unassigned) [Example 3A]
75.98% | CCCCCOC(=O)C(C)(C)NP(=O)(CO[C@H](C)Cn1cnc2c(N)ncnc21)NC(=O)c1ccc(Cl)cc1 (single isomer, unassigned) [Example 3B]
84.76% | CCCOC(=O)C(C)(C)NP(=O)(CO[C@H](C)Cn1cnc2c(N)ncnc21)NC(=O)c1ccc(Cl)cc1 (single isomer, unassigned) [Example 4B]
90.33% | C[C@H](Cn1cnc2c(N)ncnc21)OCP(=O)(NC(=O)c1ccc(Cl)cc1)NC(C)(C)C(=O)OC1CCC1 (single isomer, unassigned) [Example 6B]
99.1% | C[C@H](Cn1cnc2c(N)ncnc21)OCP(=O)(NC(=O)c1ccc(Cl)cc1)NC(C)(C)C(=O)OC1CCOCC1 (single isomer, unassigned) [Example 9B]
99.96% | CC(C)OC(=O)C(C)(C)NP(=O)(CO[C@H](C)Cn1cnc2c(N)ncnc21)NC(=O)c1ccc(F)cc1 (single isomer, unassigned) [Example 10B]
72.61% | CCCCCOC(=O)C(C)(C)NP(=O)(CO[C@H](C)Cn1cnc2c(N)ncnc21)NC(=O)c1ccc(F)cc1 (single isomer, unassigned) [Example 11A]
95.44% | CCCCCOC(=O)C(C)(C)NP(=O)(CO[C@H](C)Cn1cnc2c(N)ncnc21)NC(=O)c1cccs1 (single isomer, unassigned) [Example 15A]
92.38% | CCCCCOC(=O)C(C)(C)NP(=O)(CO[C@H](C)Cn1cnc2c(N)ncnc21)NC(=O)c1ccc(C)cc1 (single isomer, unassigned) [Example 18B]

Compound | GI Tract stability
CC(C)OC(=O)C(C)(C)NP(=O)(CO[C@H](C)Cn1cnc2c(N)ncnc21)NC(=O)c1ccc(Cl)cc1 (single isomer, unassigned) [Example 1B] | 95.48%

Test system: HIV-1 (H9/IIIB strain)
Test: Multiple round HIV-1 infection assay (Viking assay) in MT4-GFP cells
Format: cell-based
Settings: HIV-1 replication in MT4-GFP cells; 50% NHS (normal human serum); read-out: Viking, IC50 (50% NHS)
Experimental: Assessing Antiviral Potency in a Multiple Round HIV-1 Infection Assay (Viking Assay)
The antiviral activity of the tenofovir prodrugs of the Examples herein was assessed in an assay that measures the rate of replication of HIV in cell culture, termed the Viking assay (VIral KINetics in Green cells) and performed as follows. HIV-1 replication was monitored using MT4-gag-GFP clone D3 (hereafter designated MT4-GFP), which are MT-4 cells modified to harbor a GFP reporter gene, the expression of which is dependent on the HIV-1 expressed proteins tat and rev. Productive infection of an MT4-GFP cell with HIV-1 results in GFP expression approximately 24 h post-infection. MT4-GFP cells were maintained at 37° C./5% CO2/90% relative humidity in RPMI 1640 supplemented with 10% fetal bovine serum, 100 U/ml penicillin/streptomycin, and 400 μg/ml G418 to maintain the reporter gene. For infections, MT4-GFP cells were placed in the same medium lacking G418 and infected overnight with HIV-1 (H9/IIIB strain) virus at an approximate multiplicity of infection of 0.01 in the same incubation conditions. […] Compound plates were prepared by dispensing compounds dissolved in DMSO into wells of 384 well poly-D-lysine-coated plates (0.2 μl/well) using an ECHO acoustic dispenser. Each compound was tested in a 10-point serial 3-fold dilution (typical final concentrations: 8.4 μM-0.42 nM). Controls included no inhibitor (DMSO only) and a combination of three antiviral agents (efavirenz, indinavir, an in-house integrase strand transfer inhibitor at final concentrations of 4 μM each). Cells were added (50 μL/well) to compound plates and the infected cells were maintained at 37° C./5% CO2/90% relative humidity.
Infected cells were quantified at two time points, ˜48 h and ˜72 h post-infection, by counting the number of green cells in each well using an Acumen eX3 scanner. The increase in the number of green cells over ˜24 h period gives the reproductive ratio, R0, which is typically 5-15 and has been shown experimentally to be in logarithmic phase (data not shown). Inhibition of R0 is calculated for each well, and IC50s determined by non-linear 4-parameter curve fitting.

Compound | IC50
CCCCCOC(=O)C(C)(C)NP(=O)(CO[C@H](C)Cn1cnc2c(N)ncnc21)NC(=O)c1ccc(Cl)cc1 (single isomer, unassigned) [Example 3A] | 33.2 nM
CCCCCOC(=O)C(C)(C)NP(=O)(CO[C@H](C)Cn1cnc2c(N)ncnc21)NC(=O)c1ccc(Cl)cc1 (single isomer, unassigned) [Example 3B] | 10.9 nM
CCCOC(=O)C(C)(C)NP(=O)(CO[C@H](C)Cn1cnc2c(N)ncnc21)NC(=O)c1ccc(Cl)cc1 (single isomer, unassigned) [Example 4B] | 17.6 nM
C[C@H](Cn1cnc2c(N)ncnc21)OCP(=O)(NC(=O)c1ccc(Cl)cc1)NC(C)(C)C(=O)OC1CCC1 (single isomer, unassigned) [Example 6B] | 13.5 nM
C[C@H](Cn1cnc2c(N)ncnc21)OCP(=O)(NC(=O)c1ccc(Cl)cc1)NC(C)(C)C(=O)OC1CCOCC1 (single isomer, unassigned) [Example 9B] | 74.8 nM
CC(C)OC(=O)C(C)(C)NP(=O)(CO[C@H](C)Cn1cnc2c(N)ncnc21)NC(=O)c1ccc(F)cc1 (single isomer, unassigned) [Example 10B] | 89.8 nM
CCCCCOC(=O)C(C)(C)NP(=O)(CO[C@H](C)Cn1cnc2c(N)ncnc21)NC(=O)c1ccc(F)cc1 (single isomer, unassigned) [Example 11A] | 15 nM
CCCCCOC(=O)C(C)(C)NP(=O)(CO[C@H](C)Cn1cnc2c(N)ncnc21)NC(=O)c1ccc(C)cc1 (single isomer, unassigned) [Example 18B] | 10.5 nM

Same assay, conditions: HIV-1 replication in MT4-GFP cells; head prints 100% NHS (normal human serum); read-out: Viking, IC50 (100% NHS)

Compound | IC50
CCCCCOC(=O)C(C)(C)NP(=O)(CO[C@H](C)Cn1cnc2c(N)ncnc21)NC(=O)c1ccc(Cl)cc1 (single isomer, unassigned) [Example 3A] | 5.1 nM
CCCCCOC(=O)C(C)(C)NP(=O)(CO[C@H](C)Cn1cnc2c(N)ncnc21)NC(=O)c1ccc(Cl)cc1 (single isomer, unassigned) [Example 3B] | 2.3 nM
CCCOC(=O)C(C)(C)NP(=O)(CO[C@H](C)Cn1cnc2c(N)ncnc21)NC(=O)c1ccc(Cl)cc1 (single isomer, unassigned) [Example 4B] | 3.6 nM
C[C@H](Cn1cnc2c(N)ncnc21)OCP(=O)(NC(=O)c1ccc(Cl)cc1)NC(C)(C)C(=O)OC1CCC1 (single isomer, unassigned) [Example 6B] | 4.1 nM
C[C@H](Cn1cnc2c(N)ncnc21)OCP(=O)(NC(=O)c1ccc(Cl)cc1)NC(C)(C)C(=O)OC1CCOCC1 (single isomer, unassigned) [Example 9B] | 16.9 nM
CC(C)OC(=O)C(C)(C)NP(=O)(CO[C@H](C)Cn1cnc2c(N)ncnc21)NC(=O)c1ccc(F)cc1 (single isomer, unassigned) [Example 10B] | 25.7 nM
CCCCCOC(=O)C(C)(C)NP(=O)(CO[C@H](C)Cn1cnc2c(N)ncnc21)NC(=O)c1ccc(C)cc1 (single isomer, unassigned) [Example 18B] | 2 nM

Same assay, conditions: Human immunodeficiency virus 1, IIIB, HIV-1 replication in MT4-GFP cells; 50% NHS (normal human serum); read-out: Viking, IC50 (50% NHS)

Compound | IC50
CC(C)OC(=O)C(C)(C)NP(=O)(CO[C@H](C)Cn1cnc2c(N)ncnc21)NC(=O)c1ccc(Cl)cc1 (single isomer, unassigned) [Example 1B] | 24.4 nM
CCCCCOC(=O)C(C)(C)NP(=O)(CO[C@H](C)Cn1cnc2c(N)ncnc21)NC(=O)c1cccs1 (single isomer, unassigned) [Example 15A] | 34.1 nM

Same assay, conditions: Human immunodeficiency virus 1, IIIB, HIV-1 replication in MT4-GFP cells; head prints 100% NHS (normal human serum); read-out: Viking, IC50 (100% NHS)

Compound | IC50
CC(C)OC(=O)C(C)(C)NP(=O)(CO[C@H](C)Cn1cnc2c(N)ncnc21)NC(=O)c1ccc(Cl)cc1 (single isomer, unassigned) [Example 1B] | 6.9 nM
CCCCCOC(=O)C(C)(C)NP(=O)(CO[C@H](C)Cn1cnc2c(N)ncnc21)NC(=O)c1ccc(F)cc1 (single isomer, unassigned) [Example 11A] | 4.1 nM
CCCCCOC(=O)C(C)(C)NP(=O)(CO[C@H](C)Cn1cnc2c(N)ncnc21)NC(=O)c1cccs1 (single isomer, unassigned) [Example 15A] | 8.4 nM
